US11938203B2, “Oil-dispersed composition and cosmetics for lip care using the same” (AMOREPACIFIC CORPORATION, priority 2021, dated 2024)

Experiment: Compatibility between water-soluble effective raw materials and oils
Type: physicochemical
Description: Compatibility Between Water-Soluble Effective Raw Materials and Oils

[1] = ester oil and silicone-based oil that do not contain a glyceryl group or an isostearyl group
[2] = oil: Polyglyceryl-2 Triisostearate

With `COc1cc(/C=C/C(=O)Oc2cc(C)ccc2C(C)C)cc(OC)c1OC` [Thymol trimethoxy cinnamate] the “Compatibility with oil (in words)” value (diisostearyl malate oil (diester-based oil), FIG. 1) was “very good compatibility”, the “Compatibility with oil (in words)” value [1] was “excellent compatibility” and the “Compatibility with oil (in words)” value (hydrocarbon oil-based oil or alcohol-based oil) was “poor compatibility”. For the same compound, the Compatibility with oil (oil: Diisostearyl Malate) was “◯”, the Compatibility with oil (oil: Diphenylsiloxy Phenyl Trimethicone) was “◯” and the Compatibility with oil (oil: Isononyl isononanoate) was “◯”. The Compatibility with oil (oil: Octyldodecyl neopentanoate) was “◯”, the Compatibility with oil [2] was “◯” and the “Compatibility with oil (in words)” value (pentaerythrityl tetraisostearate oil, FIG. 2) was “very poor compatibility”.

In the case of Ceramides, the “Compatibility with oil (in words)” value [1] is reported as “poor compatibility”, the Compatibility with oil (oil: Diisostearyl Malate) is reported as “◯” and the Compatibility with oil [2] is reported as “◯”.
